pIC50: −log10 of the molar value.
What was measured:
[1] = target: T1, recombinant CK2A2 (Homo sapiens, UniProt P19784); assay: CK2 kinase assay (CK2A2), [γ-33P]ATP filter-binding; format: biochemical; settings: recombinant CK2A2 5 nM, ATP 5 μM, 10 μM peptide substrate, 30° C. 1 h
T1 construct: purchased Upstate Biotechnology
Procedure: (§1) The effectiveness of compounds of the present invention as inhibitors of protein kinases can be readily tested by assays known to those skilled in the art. For example, in vitro protein kinase assays may be conducted with a relevant purified protein kinase and an appropriate synthetic substrate to determine the inhibitory activities of the compounds. […] Reaction mixtures were incubated at 30° C. for 1 h, and reaction products were captured by binding to phosphocellulose (P81) filter plates. Incorporation of radioactive phosphate into the peptide substrate was determined by liquid scintillation counting. The potency of compounds in inhibiting CK2 is expressed as IC50, defined as the concentrations of compounds required to inhibit the enzymatic activity by 50%.

[2] = test system: HCT116; assay: Cell proliferation inhibition assay (MTT, CellTiter96); format: cell-based; settings: Homo sapiens, HCT-116; HCT116 cells, 72 h with compound, MTT readout
Procedure: B. Cell Proliferation Inhibition Assay
Compounds were evaluated for their ability to inhibit cell proliferation, using an assay that measures mitochondrial metabolic activity, that is directly correlated with cell numbers. Cells were plated at 2000 cells/well in 96-well plates and were cultured for 24 h in RPMI-1640 supplemented with 2% fetal bovine serum, before test compounds were added. Compounds were diluted in culture medium such that the final concentration of dimethyl sulfoxide never exceeded 1%. Following the addition of compounds, the cells were cultured for an additional 72 h before cell viability was determined by measuring the conversion of 3-(4,5-dimethylthiazol-2-yl)-2,5-diphenyltetrazolium bromide (MTT) dye using the CellTiter96 kit (Promega).

[3] = target: T2, recombinant CK2A1 (Homo sapiens, UniProt P68400); assay: CK2 kinase assay (CK2A1), [γ-33P]ATP filter-binding; format: biochemical; settings: recombinant CK2A1 10 nM, ATP 25 μM, 10 μM peptide substrate, 30° C. 1 h
T2 construct: purchased Invitrogen
Procedure: as §1

T1 sequence (P19784 whole entry): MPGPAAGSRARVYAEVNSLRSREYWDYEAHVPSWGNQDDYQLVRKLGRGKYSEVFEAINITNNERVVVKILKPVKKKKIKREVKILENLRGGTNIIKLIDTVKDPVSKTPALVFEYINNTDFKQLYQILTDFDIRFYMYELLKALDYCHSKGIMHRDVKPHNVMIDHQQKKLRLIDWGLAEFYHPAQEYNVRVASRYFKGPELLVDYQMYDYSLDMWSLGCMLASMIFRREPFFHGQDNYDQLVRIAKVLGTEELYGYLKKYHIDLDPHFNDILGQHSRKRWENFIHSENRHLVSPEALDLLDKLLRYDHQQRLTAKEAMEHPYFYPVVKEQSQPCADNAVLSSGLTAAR
T2 sequence (P68400 whole entry): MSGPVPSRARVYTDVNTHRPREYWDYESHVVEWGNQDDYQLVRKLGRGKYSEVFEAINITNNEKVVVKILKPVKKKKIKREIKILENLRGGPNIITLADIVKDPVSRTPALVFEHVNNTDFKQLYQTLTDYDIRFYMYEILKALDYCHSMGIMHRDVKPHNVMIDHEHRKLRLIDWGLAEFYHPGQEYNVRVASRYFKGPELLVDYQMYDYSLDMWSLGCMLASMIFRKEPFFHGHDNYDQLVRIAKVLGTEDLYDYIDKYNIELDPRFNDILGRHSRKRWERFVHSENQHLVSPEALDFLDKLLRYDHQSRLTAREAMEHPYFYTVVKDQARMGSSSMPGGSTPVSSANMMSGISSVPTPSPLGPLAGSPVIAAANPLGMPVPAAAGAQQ

Row | SMILES | pIC50 [1] | pIC50 [2] | pIC50 [3]
1 | CC(C)CC(=O)N[C@H]1CC[C@H](Nc2cc(NC3CC3)c3ncc(C(=O)Nc4ccnc(Cl)c4)n3n2)CC1 [Example 164, N-(2-chloro-4-pyridinyl)-8-(cyclopropylamino)-6-((trans-4-((3-methylbutanoyl)amino)cyclohexyl)amino) imidazo[1,2-b]pyridazine-3-carboxamide] | 8.68 | < 5.60 | 7.64
2 | COCC(=O)N[C@H]1CC[C@H](Nc2cc(NC3CC3)c3ncc(C(=O)Nc4ccnc(Cl)c4)n3n2)CC1 [Example 167, N-(2-chloro-4-pyridinyl)-8-(cyclopropylamino)-6-((trans-4-((methoxyacetyl)amino)cyclohexyl)amino) imidazo[1,2-b]pyridazine-3-carboxamide] | 9.40 | < 5.60 | 7.58
3 | N[C@@H](C(=O)N[C@H]1CC[C@H](Nc2cc(NC3CC3)c3ncc(C(=O)Nc4ccnc(Cl)c4)n3n2)CC1)c1ccccc1 [Example 172, 6-((trans-4-(((2R)-2-amino-2-phenylacetyl)amino)cyclohexyl)amino)-N-(2-chloro-4-pyridinyl)-8-(cyclopropylamino)imidazo [1,2-b]pyridazine-3-carboxamide] | 9.05 | 6.44 | 7.43
4 | C[C@@H](O)CC(=O)N[C@H]1CC[C@H](Nc2cc(NC3CC3)c3ncc(C(=O)Nc4ccnc(Cl)c4)n3n2)CC1 [Example 195, N-(2-chloro-4-pyridinyl)-8-(cyclopropylamino)-6-((trans-4-(((3R)-3-hydroxybutanoyl)amino)cyclohexyl)amino) imidazo[1,2-b]pyridazine-3-carboxamide] | 8.77 | 6.66 | 7.76
5 | N[C@@H](CO)C(=O)N[C@H]1CC[C@H](Nc2cc(NC3CC3)c3ncc(C(=O)Nc4ccnc(Cl)c4)n3n2)CC1 [Example 197, N-(2-chloro-4-pyridinyl)-8-(cyclopropylamino)-6-((trans-4-(L-serylamino)cyclohexyl)amino)imidazo [1,2-b]pyridazine-3-carboxamide] | 9.10 | 6.64 | 7.87
6 | O=C(Nc1ccnc(Cl)c1)c1cnc2c(NC3CC3)cc(N[C@H]3CC[C@H](NC(=O)C4COCCN4)CC3)nn12 (stereo partly drawn) [Example 198, N-(2-chloro-4-pyridinyl)-8-(cyclopropylamino)-6-((trans-4-((3-morpholinylcarbonyl)amino)cyclohexyl)amino)imidazo [1,2-b]pyridazine-3-carboxamide] | 8.82 | 7.05 | 8.44
7 | N[C@H](Cc1cccnc1)C(=O)N[C@H]1CC[C@H](Nc2cc(NC3CC3)c3ncc(C(=O)Nc4ccnc(Cl)c4)n3n2)CC1 [Example 202, N-(2-chloro-4-pyridinyl)-8-(cyclopropylamino)-6-((trans-4-((3-(3-pyridinyl)-D-alanyl)amino)cyclohexyl)amino)imidazo [1,2-b]pyridazine-3-carboxamide] | 8.77 | 6.37 | 8.02
8 | CN(C)[C@H]1CCN(C(=O)N[C@H]2CC[C@H](Nc3cc(NC4CC4)c4ncc(C(=O)Nc5ccnc(Cl)c5)n4n3)CC2)C1 [Example 272, N-(2-chloro-4-pyridinyl)-8-(cyclopropylamino)-6-((trans-4-((((3S)-3-(dimethylamino)-1-pyrrolidinyl)carbonyl)amino)cyclohexyl)amino) imidazo[1,2-b]pyridazine-3-carboxamide] | 9.10 | 6.40 | 8.72
9 | COCCNC(=O)N[C@H]1CC[C@H](Nc2cc(NC3CC3)c3ncc(C(=O)Nc4ccnc(Cl)c4)n3n2)CC1 [Example 276, N-(2-chloro-4-pyridinyl)-8-(cyclopropylamino)-6-((trans-4-(((2-methoxyethyl)carbamoyl)amino)cyclohexyl)amino)imidazo [1,2-b]pyridazine-3-carboxamide] | 8.96 | 6.80 | 7.81
10 | CCN(C)C(=O)N[C@H]1CC[C@H](Nc2cc(NC3CC3)c3ncc(C(=O)Nc4ccnc(Cl)c4)n3n2)CC1 [Example 278, N-(2-chloro-4-pyridinyl)-8-(cyclopropylamino)-6-((trans-4-((ethyl(methyl)carbamoyl)amino)cyclohexyl)amino)imidazo[1,2-b]pyridazine-3-carboxamide] | 8.82 | 6.30 | 7.20
11 | O=C(Nc1ccncc1F)c1cnc2c(NC3CC3)cc(NC3CCCC3)nn12 [Example 333, 6-(cyclopentylamino)-8-(cyclopropylamino)-N-(3-fluoro-4-pyridinyl)imidazo[1,2-b] pyridazine-3-carboxamide] | 8.30 | 6.66 | 7.59
12 | N[C@H]1CC[C@H](Nc2cc(Nc3ncccc3O)c3ncc(C(=O)Nc4ccncc4)n3n2)CC1 [Example 378, 6-((trans-4-aminocyclohexyl)amino)-8-((3-hydroxy-2-pyridinyl)amino)-N-4-pyridinyl-imidazo[1,2-b]pyridazine-3-carboxamide] | 6.54 | < 6.00 | 6.69
13 | N[C@H]1CC[C@H](Nc2cc(NC3CC3)c3ncc(C(=O)Nc4ccncc4)n3n2)CC1 [Example 390, 6-((trans-4-aminocyclohexyl)amino)-8-(cyclopropylamino)-N-4-pyridinylimidazo [1,2-b]pyridazine-3-carboxamide] | 8.22 | 6.52 | 7.82
14 | N[C@H]1CC[C@H](Nc2cc(Nc3ccc(CN4CCOCC4)cc3)c3ncc(C(=O)Nc4ccncc4)n3n2)CC1 [Example 414, 6-((trans-4-aminocyclohexyl)amino)-8-((4-(4-morpholinylmethyl)phenyl)amino)-N-4-pyridinylimidazo[1,2-b]pyridazine-3-carboxamide] | 7.33 | 6.27 | 6.94
15 | N[C@H]1CC[C@H](Nc2cc(NC3CC3)c3ncc(C(=O)Nc4ccncc4F)n3n2)CC1 [Example 468, 6-((trans-4-aminocyclohexyl)amino)-8-(cyclopropylamino)-N-(3-fluoro-4-pyridinyl)imidazo [1,2-b]pyridazine-3-carboxamide] | 8.52 | 7.05 | 8.15
16 | N[C@H]1CC[C@H](Nc2cc(NC3CCC3)c3ncc(C(=O)Nc4ccncc4F)n3n2)CC1 [Example 469, 6-((trans-4-aminocyclohexyl)amino)-8-(cyclobutylamino)-N-(3-fluoro-4-pyridinyl)imidazo [1,2-b]pyridazine-3-carboxamide] | 8.30 | 7.30 | 7.72
17 | N[C@H]1CC[C@H](Nc2cc(N[C@H]3C[C@@H](CO)C3)c3ncc(C(=O)Nc4ccncc4F)n3n2)CC1 [Example 476, 6-((trans-4-aminocyclohexyl)amino)-N-(3-fluoro-4-pyridinyl)-8-((cis-3-(hydroxymethyl)cyclobutyl)amino) imidazo[l,2-b]pyridazine-3-carboxamide] | 7.34 | 5.64 | 7.37
18 | N[C@H]1CC[C@H](Nc2cc(Nc3cccc(N4CCNCC4)n3)c3ncc(C(=O)Nc4ccncc4F)n3n2)CC1 [Example 481, 6-((trans-4-aminocyclohexyl)amino)-N-(3-fluoro-4-pyridinyl)-8-((6-(1-piperazinyl)-2-pyridinyl)amino)imidazo [1,2-b]pyridazine-3-carboxamide] | 7.47 | < 5.60 | 6.92
19 | CN(C)CCOc1ccc(Nc2cc(N[C@H]3CC[C@H](N)CC3)nn3c(C(=O)Nc4ccncc4F)cnc23)cc1 [Example 501, 6-((trans-4-aminocyclohexyl)amino)-8-((4-(2-(dimethylamino)ethoxy)phenyl)amino)-N-(3-fluoro-4-pyridinyl)imidazo[1,2-b]pyridazine-3-carboxamide] | 7.06 | 6.35 | 6.63
20 | N[C@H]1CC[C@H](Nc2cc(Nc3ccccc3)c3ncc(C(=O)Nc4ccncn4)n3n2)CC1 [Example 518, 6-((trans-4-aminocyclohexyl)amino)-8-anilino-N-4-pyrimidinylimidazo[1,2-b] pyridazine-3-carboxamide] | 7.38 | 6.77 | 7.24
21 | O=C(Nc1ccncc1F)c1cnc2c(NC3CC3)cc(N[C@H]3CC[C@H](NCC(O)CO)CC3)nn12 (stereo partly drawn) [Example 524, 8-(cyclopropylamino)-6-((trans-4-((2,3-dihydroxypropyl)amino)cyclohexyl)amino)-N-(3-fluoro-4-pyridinyl)imidazo [1,2-b]pyridazine-3-carboxamide] | 8.40 | 5.94 | 7.68
22 | NCCN[C@H]1CC[C@H](Nc2cc(NC3CC3)c3ncc(C(=O)Nc4ccnc(F)c4)n3n2)CC1 [Example 526, 6-((trans-4-((2-aminoethyl)amino)cyclohexyl)amino)-8-(cyclopropylamino)-N-(2-fluoro-4-pyridinyl)imidazo [1,2-b]pyridazine-3-carboxamide] | 7.21 | < 5.60 | 6.82

Reference: patent US8389527B2, “Substituted imidazopyridazines useful as kinase inhibitors” (Bristol-Myers Squibb Company, priority 2008, dated 2013)
